PubChem BioAssay AID200 (DTP/NCI, 2004)
Where “and” joins values, the source holds several entries; their conditions need not be identical. Equal values may be shown once. Toxic doses and inconclusive results are not listed.

System: B6C3F1 mice, B16 melanoma ip, median survival T/C
Assay: NCI In Vivo Anticancer Drug Screen. Data for tumor model B16 Melanoma (intraperitoneal) in B6C3F1 mice
Conditions: endpoint: median survival time, higher = longer survival
Summary of the method: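 Antitumor effect was judged in mice with transplanted tumors by dividing the treated group's survival measure by that of vehicle controls.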

[1] = dose: 25.0 mg/kg/injection, schedule: Q01DX009 (ip), vehicle: saline with Tween-80
[2] = dose: 50.0 mg/kg/injection, schedule: Q01DX009 (ip), vehicle: saline with Tween-80
[3] = dose: 100.0 mg/kg/injection, schedule: Q01DX009 (ip), vehicle: saline with Tween-80
[4] = dose: 50.0 mg/kg/injection, schedule: Q01DX009 (ip), vehicle: saline
[5] = dose: 100.0 mg/kg/injection, schedule: Q01DX009 (ip), vehicle: saline
[6] = dose: 12.5 mg/kg/injection, schedule: Q01DX009 (ip), vehicle: saline
[7] = dose: 25.0 mg/kg/injection, schedule: Q01DX009 (ip), vehicle: saline
[8] = dose: 200.0 mg/kg/injection, schedule: Q01DX009 (ip), vehicle: saline
[9] = dose: 12.5 mg/kg/injection, schedule: Q01DX009 (ip), vehicle: saline with Tween-80

COC1C(O)C(C)OC(OC2C(Oc3cccc4c(O)c5c(=O)oc6ccc(C)c7c(=O)oc(c34)c5c67)OC(C)C(O)C2O)C1O (stereo not given)
T/C [1]: 170 % of control
T/C [2]: 168 % of control

Nc1ccc(Cl)c2ccccc12
T/C [1]: 99 % of control
T/C [2]: 103 % of control
T/C [3]: 109 % of control

N[C@@H](C[C@H]1CCC(=O)[C@@H]2O[C@H]12)C(=O)O
T/C (dose: 25.0 mg/kg/injection, schedule: Q01DX009 (ip), vehicle: saline + alcohol): 99 % of control
T/C (dose: 50.0 mg/kg/injection, schedule: Q01DX009 (ip), vehicle: saline + alcohol): 110 % of control
T/C (dose: 400.0 mg/kg/injection, schedule: Q01DX009 (ip), vehicle: saline + alcohol): 155 % of control

CC1=NN(c2cccc(S(=O)(=O)O)c2)C(=O)C1N=Nc1cc(Cl)cc(S(=O)(=O)O)c1O.CC1=NN(c2cccc(S(=O)(=O)O)c2)C(=O)C1N=Nc1cc(Cl)cc(S(=O)(=O)O)c1O.[Cr] (stereo not given)
T/C [4]: 91 % of control
T/C [5]: 91 % of control

C=CC(C)(C)n1cc(C2=C(O)C(=O)C(c3cn(C(C)(C)C=C)c4ccccc34)=C(O)C2=O)c2ccccc21
T/C (dose: 2.5 micrograms/kg/injection, schedule: Q01DX009 (ip), vehicle: DMSO): 87 % of control
T/C (dose: 5.0 micrograms/kg/injection, schedule: Q01DX009 (ip), vehicle: DMSO): 91 % of control
T/C (dose: 10.0 micrograms/kg/injection, schedule: Q01DX009 (ip), vehicle: DMSO): 86 % of control
T/C (dose: 20.0 micrograms/kg/injection, schedule: Q01DX009 (ip), vehicle: DMSO): 87 % of control

C1CN(P2(N3CC3)=NP(N3CC3)(N3CC3)=NP(N3CC3)(N3CC3)=N2)CCO1 (stereo not given)
T/C (dose: 1.0 mg/kg/injection, schedule: Q01DX009 (ip), vehicle: saline): 87 % of control and 96 % of control
T/C (dose: 1.0 mg/kg/injection, schedule: Q02DX009 (ip), vehicle: saline): 88 % of control and 106 % of control
T/C (dose: 2.0 mg/kg/injection, schedule: Q01DX009 (ip), vehicle: saline): 87 % of control and 105 % of control
T/C (dose: 2.0 mg/kg/injection, schedule: Q02DX009 (ip), vehicle: saline): 114 % of control and 92 % of control
T/C (dose: 4.0 mg/kg/injection, schedule: Q01DX009 (ip), vehicle: saline): 101 % of control
T/C (dose: 4.0 mg/kg/injection, schedule: Q02DX009 (ip), vehicle: saline): 103 % of control
T/C (dose: 8.0 mg/kg/injection, schedule: Q01DX009 (ip), vehicle: saline): 110 % of control
T/C (dose: 8.0 mg/kg/injection, schedule: Q02DX009 (ip), vehicle: saline): 109 % of control and 121 % of control
T/C (dose: 16.0 mg/kg/injection, schedule: Q01DX009 (ip), vehicle: saline): 179 % of control
T/C (dose: 16.0 mg/kg/injection, schedule: Q02DX009 (ip), vehicle: saline): 169 % of control
T/C (dose: 32.0 mg/kg/injection, schedule: Q01DX009 (ip), vehicle: saline): 182 % of control and 205 % of control

COc1c(CNC(=O)CCl)cc2[nH]c(C)cc2c1CNC(=O)CCl
T/C (dose: 12.5 mg/kg/injection, schedule: Q01DX009 (ip), vehicle: Klucel (hydroxypropylcellulose) (HPC)): 104 % of control
T/C (dose: 25.0 mg/kg/injection, schedule: Q01DX009 (ip), vehicle: Klucel (hydroxypropylcellulose) (HPC)): 105 % of control
T/C (dose: 100.0 mg/kg/injection, schedule: Q01DX009 (ip), vehicle: Klucel (hydroxypropylcellulose) (HPC)): 116 % of control

C(COCCOCC1CO1)OCCOCC1CO1 (stereo not given)
T/C [6]: 108 % of control
T/C [7]: 104 % of control
T/C [4]: 107 % of control
T/C [8]: 153 % of control
T/C (dose: 400.0 mg/kg/injection, schedule: Q01DX009 (ip), vehicle: saline): 178 % of control

CC(=S)NC(O)C(=O)c1ccccc1 (stereo not given)
T/C (dose: 12.5 mg/kg/injection, schedule: Q01DX009 (ip), vehicle: distilled water + Tween-80): 104 % of control
T/C [9]: 95 % of control
T/C (dose: 25.0 mg/kg/injection, schedule: Q01DX009 (ip), vehicle: distilled water + Tween-80): 107 % of control
T/C [1]: 94 % of control
T/C (dose: 50.0 mg/kg/injection, schedule: Q01DX009 (ip), vehicle: distilled water + Tween-80): 98 % of control
T/C [2]: 93 % of control
T/C (dose: 100.0 mg/kg/injection, schedule: Q01DX009 (ip), vehicle: distilled water + Tween-80): 113 % of control
T/C [3]: 93 % of control
T/C (dose: 200.0 mg/kg/injection, schedule: Q01DX009 (ip), vehicle: saline with Tween-80): 89 % of control

c1cc[c]([Sn]([NH]c2ncnc3[nH]cnc23)([NH]c2ncnc3[nH]cnc23)[c]2ccccc2)cc1
T/C [6]: 105 % of control
T/C [7]: 100 % of control
T/C [4]: 100 % of control
T/C [5]: 106 % of control
T/C [8]: 116 % of control

CCC(NC(N)=O)C(CC)NC(N)=O (stereo not given)
T/C [9]: 99 % of control
T/C [1]: 96 % of control
T/C [2]: 89 % of control
